# Molecular target: T1, mouse Tas2r126 (Mus musculus, UniProt P59532)
# T1 construct: expressed in transfected cells; host or cells: HEK293T-Gα16gust44
# T1 sequence (P59532 1-308): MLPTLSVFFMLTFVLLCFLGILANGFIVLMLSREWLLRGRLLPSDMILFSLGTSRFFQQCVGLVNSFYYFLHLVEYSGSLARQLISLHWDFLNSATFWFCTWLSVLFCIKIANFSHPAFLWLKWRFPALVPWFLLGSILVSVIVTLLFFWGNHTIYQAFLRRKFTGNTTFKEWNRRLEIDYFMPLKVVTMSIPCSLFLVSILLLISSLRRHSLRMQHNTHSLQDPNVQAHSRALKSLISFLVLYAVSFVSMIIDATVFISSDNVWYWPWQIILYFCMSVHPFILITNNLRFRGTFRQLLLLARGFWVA
# Assay: Calcium imaging assay (FLIPR), HEK293T-Gα16gust44 cells transfected with mouse Tas2r126
# Type: cell-based
# Conditions: for Δ F/F: Tas2r126
# Procedure: This set of bile acids was chosen because of their commercial availability in high purities, their diversity within the class of bile acids and their previous detection and quantitation in human blood. Stock solutions were prepared in DMSO.
# As basal growth medium for the HEK293T-Gα16gust44 cell line[17],[59] served Dulbecco’s modified eagle medium (DMEM) (Thermo Fisher Scientific, Darmstadt, Germany) supplemented with 10 % fetal bovine serum (Sigma-Aldrich, Steinheim, Germany), 2 mM L-glutamine (Sigma-Aldrich, Steinheim, Germany), 100 units/ml penicillin (Sigma Aldrich, Steinheim, Germany) and 100 µg/ml streptomycin (Sigma Aldrich, Steinheim, Germany). Growth conditions were 37 °C, 5 % CO2 and saturated air-humidity[60].
# HEK293T-Gα16gust44 cells were seeded on poly-D-lysine (10 µg/ml) coated 96-well plates to reach a confluence of 40-60 % the next day. For transient transfection 150 ng of plasmid DNA containing the receptor of interest and 0.3 µl lipofectamine 2000 (Thermo Fisher Scientific, Darmstadt, Germany) per well were used and transfection took place according to the manual of lipofectamine 2000. […] The empty vector DNA (mock) was transfected as negative control[14],[41].
# Cells were loaded using the calcium-sensitive fluorescent dye Fluo-4-AM (Abcam, Cambridge, Great Britain) in the presence of 2.5 mM probenecid (Sigma-Aldrich, Steinheim, Germany) the day after transfection[13],[41]. 1 h after loading, cells were washed with C1 buffer using a BioTek Cell Washer, incubated in the dark for half an hour and washed again. For automated agonist application and measurement of fluorescence changes, a FLIPR^TETRA device (Molecular Devices, San José, United States) was used. Viability of cells was tested by application of 100 nM Somatostatin 14 (Bachem, Bubendorf, Switzerland)[42].
# Measured data were negative control corrected by subtracting the signal of the mock-transfected cells and exported to Microsoft Excel using the FLIPR software ScreenWorks 4.2. In Microsoft Excel software, standardization of maximum fluorescence intensities to the basal fluorescence and normalization to the buffer-only control was done to calculate the relative fluorescence changes (ΔF/F).
# Initial screening experiments performed in duplicate wells were confirmed by at least one replication and representative traces were selected for display. All dose-response relationships were determined by three independent experiments (biological replicates) performed in duplicates (technical replicates). Threshold concentrations, defined as lowest substance concentrations leading to statistically significant elevated fluorescence changes in receptor-transfected cells compared with empty vector-transfected cells, were determined using SigmaPlot with Student’s t-test to evaluate statistical significance (p < 0.01).
smiles,measurement,setting,value
"C[C@H](CCC(=O)NCC(=O)O)[C@H]1CC[C@H]2[C@@H]3[C@H](O)C[C@@H]4C[C@H](O)CC[C@]4(C)[C@H]3C[C@H](O)[C@]12C [Glycocholic Acid, glycocholic acid]",Δ F/F,"conc. 0,01 mM",0.008892
same,Δ F/F,"conc. 0,1 mM",0.01338
same,Δ F/F,"conc. 0,03 mM",0.009319
same,Δ F/F,"conc. 0,3 mM",0.02767
same,Δ F/F,"conc. 0,001 mM",0.01077
same,Δ F/F,conc. 1 mM,0.17
same,Δ F/F,"conc. 0,003 mM",0.01208
same,RLU,Time 0 s,0 RLU
same,RLU,Time 2 s,-8.029 RLU
same,RLU,Time 4 s,1.1384 RLU
same,RLU,Time 6 s,10.4148 RLU
same,RLU,Time 8 s,-13.1228 RLU
same,RLU,Time 12 s,17.4885 RLU
same,RLU,Time 14 s,-0.7257 RLU
same,RLU,Time 16 s,-10.5283 RLU
same,RLU,Time 18 s,16.8146 RLU
same,RLU,Time 18.781 s,23.6211 RLU
same,RLU,Time 20.781 s,-40.338 RLU
same,RLU,Time 22.781 s,22.3326 RLU
same,RLU,Time 24.781 s,63.7084 RLU
same,RLU,Time 26.781 s,76.1804 RLU
same,RLU,Time 28.781 s,137.207 RLU
same,RLU,Time 30.781 s,214.617 RLU
same,RLU,Time 32.781 s,318.834 RLU
same,RLU,Time 34.781 s,384.223 RLU
same,RLU,Time 36.781 s,455.203 RLU
same,RLU,Time 38.781 s,531.38 RLU
same,RLU,Time 40.781 s,571.264 RLU
same,RLU,Time 42.781 s,599.999 RLU
same,RLU,Time 44.781 s,648.8 RLU
same,RLU,Time 46.781 s,709.576 RLU
same,RLU,Time 48.781 s,742.486 RLU
same,RLU,Time 50.781 s,750.019 RLU
same,RLU,Time 52.781 s,771.673 RLU
same,RLU,Time 54.781 s,762.339 RLU
same,RLU,Time 56.781 s,801.528 RLU
same,RLU,Time 58.781 s,778.328 RLU
same,RLU,Time 60.781 s,814.918 RLU
same,RLU,Time 62.781 s,813.898 RLU
same,RLU,Time 64.781 s,822.442 RLU
same,RLU,Time 66.781 s,857.883 RLU
same,RLU,Time 68.781 s,851.231 RLU
same,RLU,Time 70.781 s,849.562 RLU
same,RLU,Time 72.781 s,871.931 RLU
same,RLU,Time 74.781 s,863.674 RLU
same,RLU,Time 76.781 s,844.593 RLU
same,RLU,Time 78.781 s,886.207 RLU
same,RLU,Time 80.781 s,865.546 RLU
same,RLU,Time 82.781 s,883.065 RLU
same,RLU,Time 84.781 s,898.032 RLU
same,RLU,Time 86.781 s,896.748 RLU
same,RLU,Time 88.781 s,900.918 RLU
same,RLU,Time 90.781 s,874.944 RLU
same,RLU,Time 92.781 s,885.691 RLU
same,RLU,Time 94.781 s,894.456 RLU
same,RLU,Time 96.781 s,901.176 RLU
same,RLU,Time 98.781 s,886.538 RLU
same,RLU,Time 100.781 s,892.555 RLU
same,RLU,Time 102.781 s,881.874 RLU
same,RLU,Time 104.781 s,894.645 RLU
same,RLU,Time 106.781 s,887.982 RLU
same,RLU,Time 108.781 s,886.297 RLU
same,RLU,Time 110.781 s,884.059 RLU
same,RLU,Time 112.781 s,887.824 RLU
same,RLU,Time 114.781 s,848.107 RLU
same,RLU,Time 116.781 s,861.685 RLU
same,RLU,Time 118.781 s,828.869 RLU
same,RLU,Time 120.781 s,825.037 RLU
same,RLU,Time 122.781 s,836.581 RLU
same,RLU,Time 124.781 s,866.188 RLU
same,RLU,Time 126.781 s,858.575 RLU
same,RLU,Time 128.781 s,826.803 RLU
same,RLU,Time 130.781 s,818.964 RLU
same,RLU,Time 132.781 s,847.33 RLU
same,RLU,Time 134.781 s,852.99 RLU
same,RLU,Time 136.781 s,809.769 RLU
same,RLU,Time 137.563 s,804.878 RLU
same,RLU,Time 143.563 s,793.514 RLU
same,RLU,Time 149.563 s,748.056 RLU
same,RLU,Time 155.563 s,797.54 RLU
same,RLU,Time 161.563 s,777.219 RLU
same,RLU,Time 167.563 s,736.981 RLU
same,RLU,Time 173.563 s,734.04 RLU
same,RLU,Time 179.563 s,691.98 RLU
same,RLU,Time 185.563 s,705.69 RLU
same,RLU,Time 191.563 s,730.013 RLU
same,RLU,Time 197.563 s,719.476 RLU
same,RLU,Time 203.563 s,676.213 RLU
same,RLU,Time 209.563 s,680.042 RLU
same,RLU,Time 215.563 s,670.332 RLU
same,RLU,Time 221.563 s,696.914 RLU
same,RLU,Time 227.563 s,687.176 RLU
same,RLU,Time 233.563 s,674.703 RLU
same,RLU,Time 239.563 s,658.755 RLU
same,RLU,Time 245.563 s,686.39 RLU
same,RLU,Time 293.563 s,673.116 RLU
same,RLU,Time 299.563 s,656.796 RLU
same,RLU,Time 305.563 s,663.675 RLU
same,RLU,Time 311.563 s,633.551 RLU
same,RLU,Time 317.563 s,673.002 RLU
same,RLU,Time 323.563 s,666.023 RLU
same,RLU,Time 329.563 s,652.752 RLU
same,RLU,Time 335.563 s,658.256 RLU
same,RLU,Time 341.563 s,702.617 RLU
same,RLU,Time 347.563 s,659.503 RLU
same,RLU,Time 353.563 s,654.507 RLU
same,RLU,Time 359.563 s,650.344 RLU
same,Activation threshold concentration Tas2r126,p < 0.01 vs empty vector,100 µM
